Columns and labels:
[1] = tested on: fluorescent protein-based NAD^+ biosensor (fluorescent core domain and bipartite NAD^+ binding domain); assay: NAD^+ detection with fluorescent protein biosensor in microdroplets (fluorescence quenching by NAD^+ binding); format: biochemical; settings: 1 mM of NAD^+, excitation at 488 nm, emission at 520 nm
Description: In some embodiments, the detection reagent comprises a biosensor, such as a protein biosensor, as one non-limiting example of a biosensor. The biosensor may be configured to react with the cofactor (or a redox couple of the cofactor) to generate (or quench) a luminescent signal. The generation (or quenching) of the luminescent signal may be used to detect, screen, and/or isolate droplets containing the target enzyme. In one example, the protein biosensor comprises a fluorescent core domain and a bipartite NAD+ and/or NADP+ binding domain. The fluorescent core domain has an excitation at 488 nm and an emission at 520 nm. In the presence of NAD+ and/or NADP+, the fluorescence from the core domain is quenched by binding of the NAD+ and/or NADP+ to the bipartite binding domain.
A fluorescent protein-based NAD^+ biosensor was developed for quantitative detection of NAD^+. […] In this setup, the fluorescence from the core domain was quenched by NAD^+ binding corresponding to the concentration of the bound NAD^+ (FIG. 12A). The biosensor fluorescence intensity and NAD^+ concentration were negatively correlated in the range of 1 to 1000 μM of NAD^+. […] A nearly-linear correlation between the biosensor fluorescence intensity and NAD^+ concentration was shown at range of 50 μM to 1000 μM of NAD^+.

[2] = tested on: thiolated DBC1 protein (deleted in breast cancer 1), NAD^+ binding domain linked to CdSe/CdS/CdZnS/ZnS quantum dot; assay: NAD^+ detection with quantum dot sensor linked to thiolated DBC1 protein (fluorescence quenching); format: biochemical; settings: for reduction of fluorescence signal of the sensor: 1.5 μM of sensor, in microfluidics (droplets)
Method: (4) Preparation of thiolated DBC1 protein (deleted in breast cancer 1). DBC1 protein was prepared by treated protein with 2-iminothiolane to introduce sulfhydryl residues onto a sulfydril:protein ratio of ˜20. Five mg of DBC1 dissolved in 1 mL of PBS (pH 7.4) was allowed to react with 2 mg of 2-iminothilane.HCl and kept at 4° C. for 2 h with vortex. The resulting solution was filtered through a size-exclusion centrifugal filter device (Micron YM-30, Millipore).
(5) Preparation of DBC1 protein coated QDs. The MPA capped QDs were incubated with thiolated DBC1 protein in HEPES buffer (pH 7.4) for 5 days at 4° C.
Another example for NAD^+ sensing was developed with a quantum dot fluorescence sensor through FRET effect (FIG. 13A). The highly fluorescent CdSe quantum dot core was coated with 3-mercaptopropionic acid and linked to a NAD^+ binding domain (thiolated DBC1 protein sensor). The protein sensor was reported to specifically bind NAD^+. When such binding occurs, the fluorescence of quantum dot was effectively quenched (FIG. 13B). Consequently, the fluorescence signal of the quantum dot sensor was negatively correlated to NAD+ concentration. This allowed accurate determination of NAD^+ based on the change of fluorescence signal.
The performance of the quantum dot NAD^+ sensor was explored. The quantitative NAD^+ quenching was further examined and validated with an excitation at 538 nm and the fluorescence emission is detected at 595 nm. As concentration of NAD^+ increased, the fluorescence of the sensor was quenched at a very low NAD^+ concentration. The sensor enabled the detection of NAD^+ with a detection limit of 30 μM with a sensor concentration of 1.5 μM with a fixed incubation time of 20 minutes. When the NAD^+ concentration reached 250 μM and above, more than 90% fluorescence signal is quenched. […]
For the NAD^+ detection in microfluidics, the fluorescence of 1.5 μM of sensor was examined with different concentration of NAD^+. The fluorescence signal of the sensor reduced ˜25% when incubated with 200 μM NAD^+, and reduced 45% in the presence of 250 μM NAD^+ (FIG. 14A). […]

NC(=O)c1ccc[n+]([C@@H]2O[C@H](COP(=O)([O-])OP(=O)(O)OC[C@H]3O[C@@H](n4cnc5c(N)ncnc54)[C@H](O)[C@@H]3O)[C@@H](O)[C@H]2O)c1 [NAD^+, nicotinamide adenine dinucleotide]
lower fluorescence signal (quenching by NAD^+) [1]: 21% | reduction of fluorescence signal of the sensor ([2]; 200 μM NAD^+): ~25% | reduction of fluorescence signal of the sensor ([2]; 250 μM NAD^+): 45% | fluorescence signal quenched ([2]; NAD^+ 250 μM and above, sensor 1.5 μM, incubation 20 minutes, excitation at 538 nm, emission at 595 nm): more than 90%

Reference: patent US20210318315A1, “ULTRA-HIGH-THROUGHPUT MICROFLUIDIC ENZYME SCREENING PLATFORM FOR ENZYME DEVELOPMENT” (National University of Singapore, priority 2020, published 2021)
